# Experimental data from paper PMC4436593, “Endoplasmic reticulum stress-independent activation of unfolded protein response kinases by a small molecule ATP-mimic” (eLife, 2015).
# Key:
# [1] = target: T1, IRE1α-KR43 (Homo sapiens, UniProt O75460); test: IRE1α-KR43 RNA cleavage assay with 5′ [32P]-labeled RNA substrate HP21 (kobs, single turnover); type: biochemical; design: IRE1α-KR43 comprises the soluble cytoplasmic portion of IRE1α, composed of the kinase and RNase domains plus 43 amino acids of the linker; 6xHis (N, cleaved yes); made in house; host or cells: SF21 insect cells; details: for fold activation of IRE1α-KR43 RNase activity / IRE1α RNase activation (in words): compounds 1 μM, IRE1α-KR43 200 nM; for fold activation of IRE1α-KR43 RNase activity: [32P]-labeled HP21; for IRE1α RNase activation (in words): versus DMSO control or cmp6/cmp7
# Method: To this end, we modified the molecule by substituting urea-linked and variably m- and p-substituted phenyl groups for the benzimidazole of APY29. Diphenyl urea linkers have previously been used successfully in the design of kinase inhibitors ([Dar et al., 2008]; [Dar and Shokat, 2011]; [Korennykh et al., 2012]). In exploring the addition of this chemotype on the APY29 scaffold, we generated a panel of 10 variants (Figure 1B). Each member of the panel was tested in an RNase activity assay using recombinant IRE1α-KR43 and a labeled short hairpin RNA substrate derived from human XBP1 mRNA. IRE1α-KR43 comprises the soluble cytoplasmic portion of IRE1α, composed of the kinase and RNase domains plus 43 amino acids of the linker that bridges the kinase to its transmembrane domain.
# Human IRE1α-KR43 with a hexa-histidine (6xHis) tag in its N-terminus was expressed and purified in SF21 cells as described ([Li et al., 2010]). Cells were lysed in buffer containing 20 mM Tris-HCl, pH 7.5, 600 mM NaCl, 2 mM MgCl2, 3 mM imidazole, 10% glycerol, 1% Triton X-100, 3 mM β-mercaptoethanol, COMPlete protease inhibitors (Roche), and PhosSTOP phosphatase inhibitor cocktail (Roche) and passed through an AVESTIN emulsiflex-C3 3× times for complete lysis. The lysate was cleared using centrifugation at 100,000×g. Clear lysate was allowed to incubate on Ni-NTA agarose (Qiagen) beads for 2 hr before being washed 3× times with buffer containing 20 mM Tris-HCl, pH7.5, 600 mM NaCl, 2 mM MgCl2, 30 mM imidazole, 10% glycerol, and 3 mM β-mercaptoethanol. Protein was eluted from the column by raising the imidazole concentration to 250 mM. The eluate was then passed through a HiTrap desalting column (GE Healthcare). Lastly, the 6xHis was cleaved as described ([Li et al., 2010]) and the resulting protein was then loaded onto a HisTrap HP, 5 × 5 ml column to remove the uncleaved protein. The cleaved protein was then loaded on a Mono-S 5/50 GL column (GE Healthcare), and the eluate was then concentrated to 5 mg/ml and loaded on a Superdex 200 HR 10/300 (GE Healthare) column in buffer containing 20 mM Tris-HCl pH 7.5, 250 mM NaCl, 5% Glycerol and 5 mM tris(2-carboxyethyl)phosphine (TCEP). The pure protein solution was aliquoted and stored at −80°C.
# [2] = target: T2, GST-PERK kinase domain (580–1077 aa) (Mus musculus, UniProt Q9Z2B5); test: In vitro GST-PERK kinase assay (eIF2α phosphorylation with γ-[32P]-ATP)
# T2 sequence (Q9Z2B5 580-1077): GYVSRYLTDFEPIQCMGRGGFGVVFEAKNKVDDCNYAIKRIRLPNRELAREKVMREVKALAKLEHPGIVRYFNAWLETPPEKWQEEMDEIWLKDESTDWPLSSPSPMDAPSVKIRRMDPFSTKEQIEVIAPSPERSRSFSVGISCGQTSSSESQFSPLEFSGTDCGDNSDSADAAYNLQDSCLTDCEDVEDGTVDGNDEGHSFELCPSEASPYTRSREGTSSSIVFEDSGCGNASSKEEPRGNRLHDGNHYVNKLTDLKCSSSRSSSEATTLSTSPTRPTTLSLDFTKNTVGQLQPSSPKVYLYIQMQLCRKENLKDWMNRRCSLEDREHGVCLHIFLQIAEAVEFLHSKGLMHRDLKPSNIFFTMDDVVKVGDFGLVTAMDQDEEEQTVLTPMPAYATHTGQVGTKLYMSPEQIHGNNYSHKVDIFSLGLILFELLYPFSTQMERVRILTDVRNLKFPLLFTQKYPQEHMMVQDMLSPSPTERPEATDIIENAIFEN
# [3] = target: T1, IRE1α-KR43; test: FRET-based RNA cleavage assay (fluorescent HP17 substrate) of IRE1α-KR43 RNase activity
# [4] = system: HEK293T cells; test: HEK293T cell viability (CellTiter-Blue, 24 hr); type: cell-based; details: STS dose response + 1 μM GSK PERK inhibitor
# Method: HEK293T cells were grown in DMEM (Sigma) complete media containing 10% FBS, 10 units/ml penicillin (Invitrogen), and 10 μg/ml streptomycin (Invitrogen). Cells were plated at a density of 30,000 cells per well in 96-well black plates with clear flat bottoms (Corning, Sigma-Aldrich) 24 hr before the experiment. A 12-point semi-logarithmic dilution series of compounds was made starting at 30 μM not to exceed 0.1% DMSO after final dilution into the growth media. Viability assays were conducted over the course of 24 hr. Cell viability was determined using CellTiter-Blue (Promega) following the manufacturer's instructions. […] Experiments were done in triplicate, and mean values were computed for each data point.
# [5] = compound 20 μM, RNase activity as a function of IRE1α-KR43 concentration
# T1 sequence (O75460 465-977 limits assumed): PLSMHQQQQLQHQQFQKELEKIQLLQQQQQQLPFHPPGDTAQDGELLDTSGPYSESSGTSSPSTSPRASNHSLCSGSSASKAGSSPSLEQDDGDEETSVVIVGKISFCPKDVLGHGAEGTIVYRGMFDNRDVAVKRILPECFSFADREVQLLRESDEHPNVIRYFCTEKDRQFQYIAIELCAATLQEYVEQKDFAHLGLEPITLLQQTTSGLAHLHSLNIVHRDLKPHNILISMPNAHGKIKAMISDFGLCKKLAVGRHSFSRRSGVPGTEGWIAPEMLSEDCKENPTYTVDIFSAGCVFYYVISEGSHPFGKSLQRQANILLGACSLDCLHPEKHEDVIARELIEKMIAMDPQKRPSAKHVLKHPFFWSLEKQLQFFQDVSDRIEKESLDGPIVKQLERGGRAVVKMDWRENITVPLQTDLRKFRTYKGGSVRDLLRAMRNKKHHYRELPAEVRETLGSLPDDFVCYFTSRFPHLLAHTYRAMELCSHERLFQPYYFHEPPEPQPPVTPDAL
structure (smiles),measurement,setting,value
"c1cc(Nc2cc(C3CC3)[nH]n2)nc(Nc2ccc3[nH]cnc3c2)n1 [APY29, reference compound]",fold activation of IRE1α-KR43 RNase activity,[1],fivefold
same,IC50,[2],0.69 µM
same,EC50,[3],5.2 µM
"CN[C@@H]1C[C@H]2O[C@@](C)([C@@H]1OC)n1c3ccccc3c3c4c(c5c6ccccc6n2c5c31)C(=O)NC4 [STS, staurosporine, reference compound]",change of cell viability dose response in the presence of 1 μM GSK,[4],No change in cell viability was observed
O=C(Nc1ccc(Nc2nccc(Nc3cc(C4CC4)[nH]n3)n2)cc1)Nc1cccc(C(F)(F)F)c1 [cmp1],"fold lower enzyme concentration at ½ kmax, obs versus no activator",[1]; compound 20 μM,3 fold
same,"1/2kmax, obs (IRE1α-KR43 concentration at half-maximal kobs)",[1]; [5],3 µM
same,Hill coefficient n,[1]; [5],3.8
same,fold activation of IRE1α-KR43 RNase activity,[1],10–100 fold
same,IC50,[2],4.5 µM
same,EC50,[3],0.95 µM
Cc1ccc(NC(=O)Nc2ccc(Nc3nccc(Nc4cc(C5CC5)[nH]n4)n3)cc2)cc1 [cmp2],fold activation of IRE1α-KR43 RNase activity,[1],10–100 fold
CCc1ccc(NC(=O)Nc2ccc(Nc3nccc(Nc4cc(C5CC5)[nH]n4)n3)cc2)cc1 [cmp3],fold activation of IRE1α-KR43 RNase activity,[1],10–100 fold
COc1cccc(NC(=O)Nc2ccc(Nc3nccc(Nc4cc(C5CC5)[nH]n4)n3)cc2)c1 [cmp4],fold activation of IRE1α-KR43 RNase activity,[1],10–100 fold
COc1ccc(NC(=O)Nc2ccc(Nc3nccc(Nc4cc(C5CC5)[nH]n4)n3)cc2)cc1 [cmp5],fold activation of IRE1α-KR43 RNase activity,[1],10–100 fold
O=C(Nc1ccc(I)cc1)Nc1ccc(Nc2nccc(Nc3cc(C4CC4)[nH]n3)n2)cc1 [cmp7],fold activation of IRE1α-KR43 RNase activity,[1],900 fold
O=C(Nc1ccc(Br)cc1)Nc1ccc(Nc2nccc(Nc3cc(C4CC4)[nH]n3)n2)cc1 [cmp8],IRE1α RNase activation (in words),[1],decreased activities
CC(C)c1ccc(NC(=O)Nc2ccc(Nc3nccc(Nc4cc(C5CC5)[nH]n4)n3)cc2)cc1 [cmp9],IRE1α RNase activation (in words),[1],decreased activities
CC(C)(C)c1ccc(NC(=O)Nc2ccc(Nc3nccc(Nc4cc(C5CC5)[nH]n4)n3)cc2)cc1 [cmp10],IRE1α RNase activation (in words),[1],decreased activities
